{"source": "patent US20080138391A1", "about": "“SKIN-FRIENDLY DRUG COMPLEXES FOR TRANSDERMAL ADMINISTRATION” (priority 2006, published 2008)", "assay": "Appearance of the composition and solubilization of the drug", "format": "physicochemical", "protocol": "Following here is an exemplary description of the manufacturing process used to make the pharmaceutical compositions of the present invention. Generally, the active agent is introduced either alone or as a solution in a colloidal dispersion of carbomer. […] If desired, further ingredients such as cosolvents, buffering agents, antioxidants, preservatives, permeation enhancers, etc, as mentioned herein above were added under mechanical stirring."}
{"smiles": "CCCN(CCC)CCc1cccc2c1CC(=O)N2", "note": "[ropinirole free base, ropinirole]", "values": [{"measurement": "Amount of ropinirole free base solubilized in water as a result of complexation with carbomer", "setting": "complexation with carbomer, alcohol-free", "value": "at least 3.00 % w/w"}, {"measurement": "Solubility of ropinirole free base in water", "setting": "no complexation", "value": "practically insoluble in water"}]}
